Assay results taken from patent publication US20100063008A1, “GELATINOUS ELASTOMER COMPOSITIONS” (Silipos, Inc., priority 2008, published 2010).

Assays:
[1] = Total weight of exudate (oil) absorbed by filter paper blotter discs and theoretical amount of each ingredient exuded; format: physicochemical
Description: (§1) Exposure Conditions: 37-40 deg. C., Sample filter paper discs in contact with gel specimens of same diameter were stacked in […]. aluminum petri dishes, gel specimen diameter 2.625″×0.125″ thick, filter paper disc diameter 2.625″ with another petri dish and a 1 kg dead weight on top of stack. Pressure calculated at ˜0.407 psi. (2.8 Mpa) constant. Two replicates per test condition. Repeat exposures at 3 hours then repeat three exposures of 18 hours each, changing discs but keeping same gel specimen and same side of each gel specimen in contact with each successive filter paper disc sample.
Data was calculated to determine the total weight of exudate absorbed by each individual sample filter paper blotter disc test specimen. Calculations were then performed based upon the ratios of ingredients in the gel disc formula to determine the theoretical amount of each ingredient that could have been exuded from the oil if the oil contained the same ratio of ingredients as contained in the control oil sample and in the gel.

[2] = Exudation of active agents from gel specimens to filter paper discs, quantified by UV, MS, GC and/or HPLC after extraction; format: physicochemical; conditions: for Active Agent Transferred from Gel to Filters: 37° C., 0.40 psi; for Total Active Agent Exuded from Gel: cumulative
Description: Sample filter paper discs were placed in contact with gel specimens of same diameter under constant low pressure (0.40 psi. (2.8 Mpa)) at 37° C. Multiple time-controlled exposures of the filter paper to the gel were preformed in succession to same side of gel. Quantification of active agent transferred to the filter paper discs was determined by UV, MS, GC and or HPLC analysis after extraction of active agent from the filter paper. Exudation rates was expressed as μg/unit time per unit surface area.
This compound was then divided into three aliquots' of approximately 10 grams each and poured into a 2.625″ diameter aluminum petri dish and allowed to cool to create individual gel samle discs. Subsequently, absorbent cellulose filter blotter paper was die cut to enough 2.625″ diameter discs to be employed as a wicking media for repeated exposure in direct contact with the gel compound under specific conditions as follows.
as §1
The filter paper disc specimens aa through kk were then sent to an analytical laboratory for HPLC and GC analysis along with a small sample of each individual raw ingredient so that the HPLC and GC equipment could be calibrated for the protocol being employed by the lab. This calibration allowed for determining the maximum recoverable (measurable) amount of each ingredient that could be measured using these techniques and would later be used to correct the data. The analytical laboratory then detected and measured the amount of each of the added active agents that was flushed out of the filter paper discs using wet chemistry techniques known to those skilled in the art.
The analytical data was interpreted, and the amounts of each ingredient which was exuded into each filter paper blotter disc specimen, and subsequently extracted using wet chemistry, were then entered into a data analysis spreadsheet and adjusted based on the Analytical Recovery Rate to determine actual concentration of each ingredient extracted.

[3] = Sample aa, Test Disc 1, Exposed 1 hours
[4] = Sample bb, Test Disc 1 Replicate, Exposed 1 hours
[5] = Sample cc, Test Disc 2, Exposed 3 hours
[6] = Sample dd, Test Disc 2 Replicate, Exposed 3 hours
[7] = Sample ee, Test Disc 3, Exposed 18 hours
[8] = Sample ff, Test Disc 3 Replicate, Exposed 18 hours
[9] = Sample gg, Test Disc 4, Exposed 18 hours
[10] = Sample hh, Test Disc 4 Replicate, Exposed 18 hours
[11] = Sample ii, Test Disc 5, Exposed 18 hours
[12] = Sample kk, Test Disc 5 Replicate, Exposed 18 hours
[13] = Gel Specimen Number 1, 1 h filter exposure, time 0-1 h
[14] = Gel Specimen Number 1, 3 h filter exposure, time 1-4 h
[15] = Gel Specimen Number 1, 18 h filter exposure, time 4-22 h
[16] = Gel Specimen Number 1, 18 h filter exposure, time 22-40 h
[17] = Gel Specimen Number 1, 18 h filter exposure, time 40-58 h
[18] = Gel Specimen Number 1, Time 1 h
[19] = Gel Specimen Number 1, Time 4 h
[20] = Gel Specimen Number 1, Time 22 h
[21] = Gel Specimen Number 1, Time 40 h
[22] = Gel Specimen Number 1, Time 58 h
[23] = Gel Specimen Number 2, 1 h filter exposure, time 0-1 h
[24] = Gel Specimen Number 2, 3 h filter exposure, time 1-4 h
[25] = Gel Specimen Number 2, 18 h filter exposure, time 4-22 h
[26] = Gel Specimen Number 2, 18 h filter exposure, time 22-40 h
[27] = Gel Specimen Number 2, 18 h filter exposure, time 40-58 h
[28] = Gel Specimen Number 2, Time 1 h
[29] = Gel Specimen Number 2, Time 4 h
[30] = Gel Specimen Number 2, Time 22 h
[31] = Gel Specimen Number 2, Time 40 h
[32] = Gel Specimen Number 2, Time 58 h
[33] = Specimen aa, Hours 1, Cummulative Hours 1
[34] = Specimen bb, Hours 1, Cummulative Hours 1
[35] = Specimen cc, Hours 3, Cummulative Hours 4
[36] = Specimen dd, Hours 3, Cummulative Hours 4
[37] = Specimen ee, Hours 18, Cummulative Hours 22
[38] = Specimen ff, Hours 18, Cummulative Hours 22
[39] = Specimen gg, Hours 18, Cummulative Hours 40
[40] = Specimen hh, Hours 18, Cummulative Hours 40
[41] = Specimen ii, Hours 18, Cummulative Hours 58
[42] = Specimen kk, Hours 18, Cummulative Hours 58

| Compound | Estimated grams of ingredient exuded (theoretical amount from ratios of ingredients in the gel disc formula) [1, 3] | Estimated grams of ingredient exuded (theoretical amount from ratios of ingredients in the gel disc formula) [1, 4] | Estimated grams of ingredient exuded (theoretical amount from ratios of ingredients in the gel disc formula) [1, 5] | Estimated grams of ingredient exuded (theoretical amount from ratios of ingredients in the gel disc formula) [1, 6] | Estimated grams of ingredient exuded (theoretical amount from ratios of ingredients in the gel disc formula) [1, 7] | Estimated grams of ingredient exuded (theoretical amount from ratios of ingredients in the gel disc formula) [1, 8] | Estimated grams of ingredient exuded (theoretical amount from ratios of ingredients in the gel disc formula) [1, 9] | Estimated grams of ingredient exuded (theoretical amount from ratios of ingredients in the gel disc formula) [1, 10] | Estimated grams of ingredient exuded (theoretical amount from ratios of ingredients in the gel disc formula) [1, 11] | Estimated grams of ingredient exuded (theoretical amount from ratios of ingredients in the gel disc formula) [1, 12] | Active Agent Transferred from Gel to Filters [2, 13] | Active Agent Transferred from Gel to Filters [2, 14] | Active Agent Transferred from Gel to Filters [2, 15] | Active Agent Transferred from Gel to Filters [2, 16] | Active Agent Transferred from Gel to Filters [2, 17] | Total Active Agent Exuded from Gel [2, 18] | Total Active Agent Exuded from Gel [2, 19] | Total Active Agent Exuded from Gel [2, 20] | Total Active Agent Exuded from Gel [2, 21] | Total Active Agent Exuded from Gel [2, 22] | other results |
| --- | --- | --- | --- | --- | --- | --- | --- | --- | --- | --- | --- | --- | --- | --- | --- | --- | --- | --- | --- | --- | --- |
| O=c1c(O)c(-c2ccc(O)c(O)c2)oc2cc(O)cc(O)c12 [Quercetin] | 0.0009 grams | 0.0012 grams | 0.0009 grams | 0.0014 grams | 0.0024 grams | 0.0024 grams | 0.0025 grams | 0.0022 grams | 0.0020 grams | 0.0020 grams | 10 μg per filter | 11 μg per filter | 21 μg per filter | 31 μg per filter | 15 μg per filter | 10 µg | 21 µg | 42 µg | 72 µg | 87 µg | Active Agent Transferred from Gel to Filters [2, 23]: 12 μg per filter; Active Agent Transferred from Gel to Filters [2, 24]: 15 μg per filter; Active Agent Transferred from Gel to Filters [2, 25]: 30 μg per filter; Active Agent Transferred from Gel to Filters [2, 26]: 21 μg per filter; Active Agent Transferred from Gel to Filters [2, 27]: 16 μg per filter; Total Active Agent Exuded from Gel [2, 28]: 12 µg; Total Active Agent Exuded from Gel [2, 29]: 27 µg; Total Active Agent Exuded from Gel [2, 30]: 57 µg; Total Active Agent Exuded from Gel [2, 31]: 78 µg; Total Active Agent Exuded from Gel [2, 32]: 94 µg; Quantitative Analysis - Islechem u-gram extraction [2, 33]: 9 u-gram; Quantitative Analysis - Islechem u-gram extraction [2, 34]: 11 u-gram; Quantitative Analysis - Islechem u-gram extraction [2, 35]: 9.4 u-gram; Quantitative Analysis - Islechem u-gram extraction [2, 36]: 13.2 u-gram; Quantitative Analysis - Islechem u-gram extraction [2, 37]: 18.6 u-gram; Quantitative Analysis - Islechem u-gram extraction [2, 38]: 28.6 u-gram; Quantitative Analysis - Islechem u-gram extraction [2, 39]: 27.5 u-gram; Quantitative Analysis - Islechem u-gram extraction [2, 40]: 19 u-gram; Quantitative Analysis - Islechem u-gram extraction [2, 41]: 13.2 u-gram; Quantitative Analysis - Islechem u-gram extraction [2, 42]: 14.2 u-gram |
| CCCCCCCCCCCCCCCC(=O)OC/C=C(C)/C=C/C=C(C)/C=C/C1=C(C)CCCC1(C)C [Vit. A Palmitate, reference compound] | 0.0022 grams | 0.0031 grams | 0.0024 grams | 0.0035 grams | 0.0062 grams | 0.0062 grams | 0.0064 grams | 0.0057 grams | 0.0051 grams | 0.0051 grams | 841 μg per filter | 977 μg per filter | 1955 μg per filter | 1682 μg per filter | 916 μg per filter | 841 µg | 1818 µg | 3773 µg | 5455 µg | 6370 µg | Active Agent Transferred from Gel to Filters [2, 23]: 1159 μg per filter; Active Agent Transferred from Gel to Filters [2, 24]: 1284 μg per filter; Active Agent Transferred from Gel to Filters [2, 25]: 1864 μg per filter; Active Agent Transferred from Gel to Filters [2, 26]: 1307 μg per filter; Active Agent Transferred from Gel to Filters [2, 27]: 1523 μg per filter; Total Active Agent Exuded from Gel [2, 28]: 1159 µg; Total Active Agent Exuded from Gel [2, 29]: 2443 µg; Total Active Agent Exuded from Gel [2, 30]: 4307 µg; Total Active Agent Exuded from Gel [2, 31]: 5614 µg; Total Active Agent Exuded from Gel [2, 32]: 7136 µg; Quantitative Analysis - Islechem u-gram extraction [2, 33]: 740 u-gram; Quantitative Analysis - Islechem u-gram extraction [2, 34]: 1020 u-gram; Quantitative Analysis - Islechem u-gram extraction [2, 35]: 860 u-gram; Quantitative Analysis - Islechem u-gram extraction [2, 36]: 1130 u-gram; Quantitative Analysis - Islechem u-gram extraction [2, 37]: 1720 u-gram; Quantitative Analysis - Islechem u-gram extraction [2, 38]: 1640 u-gram; Quantitative Analysis - Islechem u-gram extraction [2, 39]: 1480 u-gram; Quantitative Analysis - Islechem u-gram extraction [2, 40]: 1150 u-gram; Quantitative Analysis - Islechem u-gram extraction [2, 41]: 806 u-gram; Quantitative Analysis - Islechem u-gram extraction [2, 42]: 1340 u-gram |
